Results taken from ChEMBL document CHEMBL4024734, “Design, synthesis, biological evaluation and molecular docking studies of novel 3-aryl-4-anilino-2H-chromen-2-one derivatives targeting ERα as anti-breast cancer agents” (Bioorg Med Chem Lett, 2017).

test system: MCF7; test: Antiproliferative activity against ER positive human MCF7 cells after 48 hrs by MTT assay; type: functional, cell-based; settings: MCF7, 48 h

SMILES	IC50 [µM]
COc1ccc(-c2c(Nc3ccc(OCCN4CCCCC4)cc3)c3ccc(OC)cc3oc2=O)cc1	4.52
CCN(CC)CCOc1ccc(Nc2c(-c3ccc(OC)cc3)c(=O)oc3cc(O)ccc23)cc1	8.81
COc1ccc(-c2c(Nc3ccc(OCCN(C)C)cc3)c3ccc(O)cc3oc2=O)cc1	9.53
COc1ccc(-c2c(Nc3ccc(OCCN4CCCC4)cc3)c3ccccc3oc2=O)cc1	6.21
COc1ccc(-c2c(Nc3ccc(OCCN(C)C)cc3)c3ccccc3oc2=O)cc1	8.76
CCN(CC)CCOc1ccc(Nc2c(-c3ccc(OC)cc3)c(=O)oc3ccccc23)cc1	7.57
COc1ccc(-c2c(Nc3ccc(OCCN4CCCC4)cc3)c3ccc(OC)cc3oc2=O)cc1	6.51
COc1ccc(-c2c(Nc3ccc(OCCN4CCOCC4)cc3)c3ccc(O)cc3oc2=O)cc1	> 100
COc1ccc(-c2c(Nc3ccc(OCCN(C)C)cc3)c3ccc(OC)cc3oc2=O)cc1	8.32
COc1ccc(-c2c(Nc3ccc(OCCN4CCN(C)CC4)cc3)c3ccc(O)cc3oc2=O)cc1	17.6
COc1ccc(-c2c(Nc3ccc(OCCN4CCOCC4)cc3)c3ccccc3oc2=O)cc1	47.5
CC/C(=C(\c1ccccc1)c1ccc(OCCN(C)C)cc1)c1ccccc1 [TAMOXIFEN]	11.3
COc1ccc(-c2c(Nc3ccc(OCCN4CCOCC4)cc3)c3ccc(OC)cc3oc2=O)cc1	> 100
COc1ccc(-c2c(Nc3ccc(OCCN4CCCC4)cc3)c3ccc(O)cc3oc2=O)cc1	8.42
COc1ccc(-c2c(Nc3ccc(OCCN4CCCCC4)cc3)c3ccc(O)cc3oc2=O)cc1	7.31
COc1ccc(-c2c(Nc3ccc(OCCN4CCN(C)CC4)cc3)c3ccccc3oc2=O)cc1	15.6
COc1ccc(-c2c(Nc3ccc(OCCN4CCCCC4)cc3)c3ccccc3oc2=O)cc1	5.86
CCN(CC)CCOc1ccc(Nc2c(-c3ccc(OC)cc3)c(=O)oc3cc(OC)ccc23)cc1	10.2
COc1ccc(-c2c(Nc3ccc(OCCN4CCN(C)CC4)cc3)c3ccc(OC)cc3oc2=O)cc1	12.4

test system: Ishikawa; test: Antiproliferative activity against human Ishikawa cells after 48 hrs by MTT assay; type: functional, cell-based; settings: not given

SMILES	IC50 [µM]
COc1ccc(-c2c(Nc3ccc(OCCN4CCCCC4)cc3)c3ccc(OC)cc3oc2=O)cc1	11.6
CCN(CC)CCOc1ccc(Nc2c(-c3ccc(OC)cc3)c(=O)oc3cc(O)ccc23)cc1	14.8
COc1ccc(-c2c(Nc3ccc(OCCN(C)C)cc3)c3ccc(O)cc3oc2=O)cc1	13.2
COc1ccc(-c2c(Nc3ccc(OCCN4CCCC4)cc3)c3ccccc3oc2=O)cc1	9.3
COc1ccc(-c2c(Nc3ccc(OCCN(C)C)cc3)c3ccccc3oc2=O)cc1	11.8
CCN(CC)CCOc1ccc(Nc2c(-c3ccc(OC)cc3)c(=O)oc3ccccc23)cc1	10.8
COc1ccc(-c2c(Nc3ccc(OCCN4CCCC4)cc3)c3ccc(OC)cc3oc2=O)cc1	9.39
COc1ccc(-c2c(Nc3ccc(OCCN4CCOCC4)cc3)c3ccc(O)cc3oc2=O)cc1	> 100
COc1ccc(-c2c(Nc3ccc(OCCN(C)C)cc3)c3ccc(OC)cc3oc2=O)cc1	12.2
COc1ccc(-c2c(Nc3ccc(OCCN4CCN(C)CC4)cc3)c3ccc(O)cc3oc2=O)cc1	19.4
COc1ccc(-c2c(Nc3ccc(OCCN4CCOCC4)cc3)c3ccccc3oc2=O)cc1	49.5
COc1ccc(-c2c(Nc3ccc(OCCN4CCOCC4)cc3)c3ccc(OC)cc3oc2=O)cc1	> 100
COc1ccc(-c2c(Nc3ccc(OCCN4CCCC4)cc3)c3ccc(O)cc3oc2=O)cc1	11.8
COc1ccc(-c2c(Nc3ccc(OCCN4CCCCC4)cc3)c3ccc(O)cc3oc2=O)cc1	8.43
COc1ccc(-c2c(Nc3ccc(OCCN4CCN(C)CC4)cc3)c3ccccc3oc2=O)cc1	23.4
COc1ccc(-c2c(Nc3ccc(OCCN4CCCCC4)cc3)c3ccccc3oc2=O)cc1	8.74
CCN(CC)CCOc1ccc(Nc2c(-c3ccc(OC)cc3)c(=O)oc3cc(OC)ccc23)cc1	8.84
COc1ccc(-c2c(Nc3ccc(OCCN4CCN(C)CC4)cc3)c3ccc(OC)cc3oc2=O)cc1	15.2

test system: MCF7; test: Potency index, ratio of tamoxifen IC50 to compound IC50 against human MCF7 cells; type: functional; settings: not given

SMILES	Ratio IC50
COc1ccc(-c2c(Nc3ccc(OCCN4CCCCC4)cc3)c3ccc(OC)cc3oc2=O)cc1	3

target: T1, Estrogen receptor (Homo sapiens) (UniProt P03372); test: Displacement of fluoromone from full length recombinant human estrogen receptor alpha expressed in Spodoptera frugiperda at 100 uM measured after 2 hrs by fluorescence polarization assay relative to control; settings: not given
T1 sequence (whole entry): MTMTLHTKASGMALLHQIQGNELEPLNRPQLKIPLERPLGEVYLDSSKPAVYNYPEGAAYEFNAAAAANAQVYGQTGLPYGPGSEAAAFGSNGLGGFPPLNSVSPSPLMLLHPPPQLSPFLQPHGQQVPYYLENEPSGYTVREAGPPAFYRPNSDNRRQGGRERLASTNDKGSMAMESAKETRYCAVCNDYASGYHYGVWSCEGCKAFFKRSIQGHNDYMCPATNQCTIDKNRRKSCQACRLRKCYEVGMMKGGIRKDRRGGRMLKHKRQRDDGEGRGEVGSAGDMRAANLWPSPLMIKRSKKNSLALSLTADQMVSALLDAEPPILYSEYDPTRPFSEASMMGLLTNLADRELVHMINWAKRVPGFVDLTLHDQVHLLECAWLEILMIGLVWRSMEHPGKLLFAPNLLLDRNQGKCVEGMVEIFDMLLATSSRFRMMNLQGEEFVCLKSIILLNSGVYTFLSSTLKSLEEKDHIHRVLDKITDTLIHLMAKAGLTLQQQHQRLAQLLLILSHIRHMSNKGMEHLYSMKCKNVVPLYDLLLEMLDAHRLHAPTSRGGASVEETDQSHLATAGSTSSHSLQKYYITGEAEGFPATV

SMILES	RBA [%]
COc1ccc(-c2c(Nc3ccc(OCCN4CCOCC4)cc3)c3ccccc3oc2=O)cc1	17
COc1ccc(-c2c(Nc3ccc(OCCN4CCOCC4)cc3)c3ccc(OC)cc3oc2=O)cc1	24
